Assay results published in patent publication US20080305097A1, “Use of Protease or a Protease Inhibitor for the Manufacture of Medicaments” (YEDA RESEARCH AND DEVELOPMENT CO., LTD., priority 2004, published 2008).

Legend:
[1] = test system: TRAP+ osteoclasts; assay: TRAP staining of activated osteoclasts in BM after LPS; assay type: in vivo, Balb/c mice; conditions: LPS 250 μg/mouse single injection, 5 days later
Description: LPS (Sigma) was administered to Balb/c mice in a single subcutaneous injection of 250 μg/mouse, and saline was injected instead of LPS in control groups. 5 days following LPS administration, mice were sacrificed, bones were fixed, decalcified, paraffin embedded and sectioned, BM harvested, and the level of TRAP+ osteoclast (activated osteoclast) monitored.
In this assay substrate is exogeneously provided to measure intrinsic activity of the tissue TRAP in the BM of LPS treated mice (FIGS. 1A and B).

[2] = test system: HGF; assay: Semi quantitative RT-PCR of BM after LPS: HGF; assay type: in vivo, mouse; conditions: LPS treated mice, 5 days
Description: (§1) One femur of each mouse was flushed with Trireagent for RNA extraction. 1 ug RNA was used for the preparation of cDNA. Semi quantitative RT-PCR was used to measure the transcription of mouse SDF-1, HGF and CTK. The following primers were used: SDF-1 (Ponomaryov, 2000, J. Clin. Invest. 106:1331): left primer (SEQ ID NO: 1) 5′-[…]-3′, right primer (SEQ ID NO: 2) 5′-[…]-3′. HGF (Weinstein, 2001, Moll Cell boil, 21(15):5122): left primer (SEQ ID NO: 3) 5′-[…]-3′, right primer (SEQ ID NO: 4) 5′-[…]-3′. CTK: left primer (SEQ ID NO: 5) 5′-[…]-3′, right primer (SEQ ID NO: 6) 5′-[…]-3′.

[3] = test system: CTK; assay: Semi quantitative RT-PCR of BM after LPS: CTK; assay type: in vivo, mouse; conditions: LPS treated mice, 5 days
Description: as §1

[4] = test system: SDF-1; assay: Semi quantitative RT-PCR of BM after LPS: SDF-1; assay type: in vivo, mouse; conditions: LPS treated mice, 5 days
Description: as §1

[5] = test system: SDF-1; assay: SDF-1 concentration in bone marrow by ELISA after LPS; assay type: in vivo, Balb/c mice
Description: Mice were administered for 5 days with LPS as described in example 1 and SDF-1 concentration in bone marrow was monitored (by ELISA as described by Petit et al 2002).
(§2) In order to verify that the progenitor increase detected in PB in the LPS treated mice, results from the egress or mobilization of cells from the bone marrow, mononuclear cells (MNC) were monitored in the BM and in PB by counting numbers of ficolled WBC (leukocytes), using hemacytometer shortly after LPS treatment (16 hours post LPS treatment) and in BM and PB of non treated mice (FIG. 3).

[6] = test system: progenitors; assay: CFU assay of progenitors in peripheral blood after LPS; assay type: in vivo, Balb/c mice
Description: Mice were administered for 5 days with LPS (as described in Example 1) and progenitor increase in peripheral blood (PB) was measured (as in Example 9).
(§3) In order to detect the levels of mouse progenitors in the blood circulation, semisolid cultures were performed as previously described (Petit, Nat Immunol, 2002). In brief, mouse BM cells (3×10^5 cells/ml) were plated in 0.9% methylcellulose (Sigma), 30% FCS, 5×10^−5M 2ME, 50 ng/ml SCF, 5 ng/ml IL-3, 5 ng/ml GM-CSF (R&D), and 2 u/ml erythropoietin (Orto Bio Tech, Don Mills, Canada). The cultures were incubated at 37° C. in a humidified atmosphere containing 5% CO2 and scored 7 days later by inverted microscopy by morphologic criteria.

[7] = test system: mononuclear cells (MNC); assay: Mononuclear cell counts in BM and PB by hemacytometer after LPS; assay type: in vivo, Balb/c mice; conditions: 16 hours post LPS, versus non treated mice
Description: as §2

[8] = test system: CXCR4; assay: CXCR4 expression in BM and PB by flow cytometry after LPS; assay type: in vivo, Balb/c mice; conditions: both BM and PB, 16 hours post LPS
Description: We monitored CXCR4 expression in BM and PB of LPS treated mice, 16 hours post LPS administration, and in control non treated mice.

[9] = test system: TRAP+ multinucleated osteoclasts; assay: Osteoblast/BM co-culture, TRAP+ multinucleated osteoclast count; assay type: cell-based, mouse; conditions: G-CSF 50 ng/ml, HGF 50 ng/ml, SDF-1 10 and 100 ng/ml; 5 days
Description: Osteoclast precursors are stimulated by cell-cell contact with osteoblasts to become activated multinucleated TRAP+ bone resorbing cells. To obtain active osteoclasts in vitro, a clvarian osteoblasts are incubated with Vitamine D3 and PG2E which potentiate their M-CSF production and RANKL expression, needed for osteoclast activation. BM cells which contain osteoclast precursors are seeded then on the osteoblast monolayer, for 5 days, to obtain active multinucleated osteoclasts.
A co-culture of primary mouse osteoblasts and BM (containing ocl precursors as detailed above) was seeded in the presence of G-CSF (50 ng/ml), HGF (50 ng/ml), or SDF-1 (10 and 100 ng/ml). Five days later, TRAP+ multinucleated osteoclasts in the cultures were stained (as described in Example 1) and counted 5 days later.

[10] = test system: SDF-1; assay: SDF-1 transcription (RT-PCR) and secretion (ELISA) in primary calvaria osteoblasts; assay type: cell-based, mouse; conditions: 50 ng/ml, 3 days
Description: Osteoblast were incubated with G-CSF, HGF or remained untreated, and SDF-1 transcription and expression was determined in such cells (FIG. 9).
Primary calvaria osteoblasts were cultured for 3 days in the presence of SDF-1 (PeproTech, 100 […]), HGF (PeproTech, 50 ng/ml) and G-CSF (Filgrastin, Roche, 50 ng/ml). Conditioned media was collected to determine SDF-1 concentration by ELISA, as described in Example 2. Determination of SDF-1 transcription and expression as in Example 2.

[11] = test system: osteoclast; assay: In vivo osteoclast activation by SDF-1 or HGF, TRAP staining; parameters: species or system Balb/c mice; conditions: subcutaneously five consecutive days, 10 mcg SDF-1 or 1.5 mcg HGF
Description: (§4) We carried out the following experiment to verify in vivo our hypothesis that SDF-1 induces osteoclast activation and hematopoietic progenitor cell (HPC) mobilization. Balb/c mice were injected subcutaneously for five consecutive days with 10 mcg SDF-1 or 1.5 mcg HGF or both, and osteoclast activation (measured by TRAP+ staining as in Example 1) and mobilization to the peripheral blood, (assayed in semi solid culture as in Example 1) was determined.

[12] = test system: hematopoietic progenitor cell (HPC); assay: In vivo progenitor mobilization by SDF-1 or HGF, semi solid culture; parameters: species or system Balb/c mice; conditions: subcutaneously five consecutive days, 10 mcg SDF-1 or 1.5 mcg HGF
Description: as §4, §3

Substance | TRAP+ osteoclasts in the BM [1] | HGF transcription in the BM [2] | CTK transcription in the BM [3] | SDF-1 transcription in the BM [4] | decrease in BM SDF-1 concentration ([5]; 16 hours post LPS, versus non treated mice) | BM SDF-1 concentration ([5]; 5 days LPS) | decrease in BM SDF-1 concentration ([5]; 5 days LPS, versus non-treated control) | progenitor mobilization ([6]; 16 hours post LPS) | level of progenitors in PB, higher than control non-treated mice ([6]; 5 days LPS) | progenitor colonies in PB ([6]; 5 days LPS) | decrease of MNC cells in the BM [7] | increase of MNC cells in the PB [7] | level of CXCR4 expression [8] | level of activated TRAP+ osteoclasts [9] | SDF-1 transcription in osteoblasts [10] | SDF-1 production in osteoblasts ([10]; conditioned media ELISA) | osteoclast activation in vivo [11] | mobilization of progenitors in vivo [12]
lipopolysaccharide [LPS] | dramatic increase in TRAP+ osteoclasts | dramatic increase | dramatic increase | decrease | about 55% | 0.4 ng/mg protein | about 66% | significant increase in progenitor mobilization | about 95% | about 100 colonies per 5×10^5 seeded cells | about 53% | about 78% | significant increase | – | – | – | – | –
HGF: hepatocyte growth factor (PeproTech) | – | – | – | – | – | – | – | – | – | – | – | – | – | significantly increased | induce | induce | induced | induced
